Laboratory results from patent US9833497B2, “Human originated EGF domain proteins and use of the same” (CHENGDU SOURCEBIO LIMITED-LIABILITY COMPANY, priority 2013, dated 2017).

Assays:
Format in all cases: cell-based
E. coli DH5α = test: Antibacterial activity: MIC and growth curve against E. coli DH5α in 96-well plate; conditions: minimal inhibitory concentration against E. coli DH5α; 96-well plate, 5×10^5 CFU/mL, 37° C., judged after 8 h
How it was run: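 Log-phase bacteria (OD600 ~0.5) resuspended in LB at 5×10^5 CFU/mL, exposed to recombinant protein at 50, 25, 12.5 μg/mL final in triplicate, 37 °C shaking at 175 rpm. OD600 read every 30 min; MIC is lowest concentration showing no growth.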

E. coli BL21 = test: MIC against Gram-negative bacteria: E. coli BL21; conditions: 5×10^5 CFU/mL, 10 h cultivation at 37° C.
How it was run: (§1)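 LB broth cultures at McFarland 0.5, spun down, resuspended, diluted to 5×10^5 CFU/mL final. Two-fold serial dilutions of purified human EGF domain proteins, triplicate. 37° C, 175 rpm shaking. Endpoint: no visible growth.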

Pseudomonas aeruginosa = test: MIC against Gram-negative bacteria: Pseudomonas aeruginosa; conditions: 5×10^5 CFU/mL, 10 h cultivation at 37° C.
How it was run: as §1

Klebsiella pneumonia = test: MIC against Gram-negative bacteria: Klebsiella pneumonia; conditions: 5×10^5 CFU/mL, 10 h cultivation at 37° C.
How it was run: as §1

Enterobacter cloacae = test: MIC against Gram-negative bacteria: Enterobacter cloacae; conditions: 5×10^5 CFU/mL, 10 h cultivation at 37° C.
How it was run: as §1

Aeromonas hydrophila = test: MIC against Gram-negative bacteria: Aeromonas hydrophila; conditions: 5×10^5 CFU/mL, 10 h cultivation at 37° C.
How it was run: as §1

Citrobacter diversus = test: MIC against Gram-negative bacteria: Citrobacter diversus; conditions: 5×10^5 CFU/mL, 10 h cultivation at 37° C.
How it was run: as §1

Moraxella catarrhalis = test: MIC against Gram-negative bacteria: Moraxella catarrhalis; conditions: 5×10^5 CFU/mL, 10 h cultivation at 37° C.
How it was run: as §1

Proteus mirabilis = test: MIC against Gram-negative bacteria: Proteus mirabilis; conditions: 5×10^5 CFU/mL, 10 h cultivation at 37° C.
How it was run: as §1

Proteus vulgaris = test: MIC against Gram-negative bacteria: Proteus vulgaris; conditions: 5×10^5 CFU/mL, 10 h cultivation at 37° C.
How it was run: as §1

Serratia marcescens = test: MIC against Gram-negative bacteria: Serratia marcescens; conditions: 5×10^5 CFU/mL, 10 h cultivation at 37° C.
How it was run: as §1

Substance: PRT1356 (KEQRCPSDCHGQGRCVDGQCICHEGFTGLDCG; listed as Homo sapiens)
- MIC (E. coli DH5α): 12.5 µg/mL
- MIC against E. coli BL21 (E. coli BL21; E. coli BL21): 50 µg/mL
- MIC against P. aeruginosa (Pseudomonas aeruginosa; Pseudomonas aeruginosa): 12.5 µg/mL
- MIC against K. pneumonia (Klebsiella pneumonia; Klebsiella pneumonia): 50 µg/mL
- MIC against E. cloacae (Enterobacter cloacae; Enterobacter cloacae): 25 µg/mL
- MIC against A. hydrophila (Aeromonas hydrophila; Aeromonas hydrophila): 25 µg/mL
- MIC against C. diversus (Citrobacter diversus; Citrobacter diversus): 12.5 µg/mL
- MIC against M. catarrhalis (Moraxella catarrhalis; Moraxella catarrhalis): 25 µg/mL
- MIC against P. mirabilis (Proteus mirabilis; Proteus mirabilis): 50 µg/mL
- MIC against P. vulgaris (Proteus vulgaris; Proteus vulgaris): 25 µg/mL
- MIC against S. marcescens (Serratia marcescens; Serratia marcescens): 12.5 µg/mL

Substance: PRT1133 (KAGPCEQAGSPCRNGGQCQDDQGFALNFTCRCLVGFVGARCE; listed as Homo sapiens)
- MIC (E. coli DH5α): 12.5 µg/mL
- MIC E. coli BL21 (E. coli BL21; two-fold serial dilution): 12.5 µg/mL
- MIC P. aeruginosa (Pseudomonas aeruginosa; two-fold serial dilution): 12.5 µg/mL
- MIC K. pneumonia (Klebsiella pneumonia; two-fold serial dilution): 12.5 µg/mL
- MIC E. cloacae (Enterobacter cloacae; two-fold serial dilution): 25 µg/mL
- MIC A. hydrophila (Aeromonas hydrophila; two-fold serial dilution): 25 µg/mL
- MIC C. diversus (Citrobacter diversus; two-fold serial dilution): 12.5 µg/mL
- MIC M. catarrhalis (Moraxella catarrhalis; two-fold serial dilution): 25 µg/mL
- MIC P. mirabilis (Proteus mirabilis; two-fold serial dilution): 12.5 µg/mL
- MIC P. vulgaris (Proteus vulgaris; two-fold serial dilution): 25 µg/mL
- MIC S. marcescens (Serratia marcescens; two-fold serial dilution): 12.5 µg/mL

Substance: PRT257 (CTDGHRGGCSEHANCLSTGLNTRRCECHAGYVGDGLQC; listed as Homo sapiens)
- MIC (E. coli DH5α): 12.5 µg/mL
- MIC (μg/mL) E. coli BL21 (E. coli BL21; E. coli BL21): 25 µg/mL
- MIC (μg/mL) P. aeruginosa (Pseudomonas aeruginosa; P. aeruginosa): 12.5 µg/mL
- MIC (μg/mL) K. pneumonia (Klebsiella pneumonia; K. pneumonia): 25 µg/mL
- MIC (μg/mL) E. cloacae (Enterobacter cloacae; E. cloacae): 12.5 µg/mL
- MIC (μg/mL) A. hydrophila (Aeromonas hydrophila; A. hydrophila): 25 µg/mL
- MIC (μg/mL) C. diversus (Citrobacter diversus; C. diversus): 12.5 µg/mL
- MIC (μg/mL) M. catarrhalis (Moraxella catarrhalis; M. catarrhalis): 25 µg/mL
- MIC (μg/mL) P. mirabilis (Proteus mirabilis; P. mirabilis): 12.5 µg/mL
- MIC (μg/mL) P. vulgaris (Proteus vulgaris; P. vulgaris): 12.5 µg/mL
- MIC (μg/mL) S. marcescens (Serratia marcescens; S. marcescens): 12.5 µg/mL

Substance: PRT163 (EYNECLSAPCLNAATCRDLVNGYECVCLAEYKGTHCE; listed as Homo sapiens)
- MIC (E. coli DH5α): 12.5 µg/mL
- MIC (μg/mL) E. coli BL21 (E. coli BL21; E. coli BL21): 25 µg/mL
- MIC (μg/mL) P. aeruginosa (Pseudomonas aeruginosa; P. aeruginosa): 12.5 µg/mL
- MIC (μg/mL) K. pneumonia (Klebsiella pneumonia; K. pneumonia): 25 µg/mL
- MIC (μg/mL) E. cloacae (Enterobacter cloacae; E. cloacae): 12.5 µg/mL
- MIC (μg/mL) A. hydrophila (Aeromonas hydrophila; A. hydrophila): 25 µg/mL
- MIC (μg/mL) C. diversus (Citrobacter diversus; C. diversus): 12.5 µg/mL
- MIC (μg/mL) M. catarrhalis (Moraxella catarrhalis; M. catarrhalis): 25 µg/mL
- MIC (μg/mL) P. mirabilis (Proteus mirabilis; P. mirabilis): 50 µg/mL
- MIC (μg/mL) P. vulgaris (Proteus vulgaris; P. vulgaris): 25 µg/mL
- MIC (μg/mL) S. marcescens (Serratia marcescens; S. marcescens): 12.5 µg/mL

Substance: PRT442 (DINECEQVPKPCAHQCSNTPGSFKCICPPGQHLLGDGKSCA; listed as Homo sapiens)
- MIC (E. coli DH5α): 12.5 µg/mL
- MIC (E. coli BL21; E. coli BL21): 50 µg/mL
- MIC (Pseudomonas aeruginosa; P. aeruginosa): 25 µg/mL
- MIC (Klebsiella pneumonia; K. pneumonia): 12.5 µg/mL
- MIC (Enterobacter cloacae; E. cloacae): 25 µg/mL
- MIC (Aeromonas hydrophila; A. hydrophila): 50 µg/mL
- MIC (Citrobacter diversus; C. diversus): 25 µg/mL
- MIC (Moraxella catarrhalis; M. catarrhalis): 12.5 µg/mL
- MIC (Proteus mirabilis; P. mirabilis): 12.5 µg/mL
- MIC (Proteus vulgaris; P. vulgaris): 12.5 µg/mL
- MIC (Serratia marcescens; S. marcescens): 25 µg/mL

Substance: PRT887 (LNDACISNPCNEGSNCDTNPVNGKAICTCPSGYTGPACS; listed as Homo sapiens)
- MIC (E. coli DH5α): 12.5 µg/mL
- MIC (μg/mL) E. coli BL21 (E. coli BL21; E. coli BL21): 25 µg/mL
- MIC (μg/mL) P. aeruginosa (Pseudomonas aeruginosa; P. aeruginosa): 12.5 µg/mL
- MIC (μg/mL) K. pneumonia (Klebsiella pneumonia; K. pneumonia): 25 µg/mL
- MIC (μg/mL) E. cloacae (Enterobacter cloacae; E. cloacae): 50 µg/mL
- MIC (μg/mL) A. hydrophila (Aeromonas hydrophila; A. hydrophila): 25 µg/mL
- MIC (μg/mL) C. diversus (Citrobacter diversus; C. diversus): 12.5 µg/mL
- MIC (μg/mL) M. catarrhalis (Moraxella catarrhalis; M. catarrhalis): 25 µg/mL
- MIC (μg/mL) P. mirabilis (Proteus mirabilis; P. mirabilis): 50 µg/mL
- MIC (μg/mL) P. vulgaris (Proteus vulgaris; P. vulgaris): 12.5 µg/mL
- MIC (μg/mL) S. marcescens (Serratia marcescens; S. marcescens): 50 µg/mL
